Laboratory results taken from ChEMBL document CHEMBL6087402, “Design, synthesis, and in vitro and in vivo biological evaluation of dihydroartemisinin derivatives as potent anti-cancer agents with ferroptosis-inducing and apoptosis-activating properties” (Eur J Med Chem, 2025).

Columns and labels:
[1] = Selectivity index, ratio of IC50 for human L02 cells to IC50 for human A549 cells; format: toxicity; conditions: L02 cells versus A549 cells, read-out: Ratio IC50
[2] = Selectivity index, ratio of IC50 for human L02 cells to IC50 for human SW620 cells; format: toxicity; conditions: L02 cells versus SW620 cells, read-out: Ratio IC50
[3] = tested on: HCT-116; assay: Anti-proliferative activity against human HCT-116 cells incubated for 72 hrs by MTT assay; format: functional, cell-based; conditions: HCT-116, 72 h
[4] = Selectivity index, ratio of IC50 for human L02 cells to IC50 for human Bel-7402 cells; format: toxicity; conditions: L02 cells versus Bel-7402 cells, read-out: Ratio IC50
[5] = tested on: A549; assay: Anti-proliferative activity against human A549 cells incubated for 72 hrs by MTT assay; format: functional, cell-based; conditions: A549, 72 h
[6] = tested on: SW-620; assay: Anti-proliferative activity against human SW620 cells incubated for 72 hrs by MTT assay; format: functional, cell-based; conditions: SW-620, 72 h
[7] = tested on: Bel-7402; assay: Anti-proliferative activity against human Bel-7402 cells incubated for 72 hrs by MTT assay; format: functional, cell-based; conditions: Bel-7402, 72 h
[8] = Anti-proliferative activity against human L02 cells incubated for 72 hrs by MTT assay; format: toxicity, cell-based
[9] = Selectivity index, ratio of IC50 for human L02 cells to IC50 for human HCT-116 cells; format: toxicity; conditions: L02 cells versus HCT-116 cells, read-out: Ratio IC50

SMILES | selectivity ratio [1] | selectivity ratio [2] | IC50 [3] | selectivity ratio [4] | IC50 [5] | IC50 [6] | IC50 [7] | IC50 at 72 h [8] | selectivity ratio [9]
CCCNC(=O)OC1O[C@@H]2O[C@@]3(C)CC[C@@H]4[C@H](C)CC[C@@H]([C@H]1C)[C@@]24OO3 (some centres undefined) | 13.6 | 2.78 | > 10 µM | < 1.21 | > 10 µM | > 10 µM | > 10 µM | 12.1 µM | 25.8
C[C@@H]1CC[C@H]2[C@@H](C)C(OC(=O)c3ccc(Cn4cc(Cl)cn4)cc3)O[C@@H]3O[C@@]4(C)CC[C@H]1[C@]32OO4 (some centres undefined) | – | – | 2.6 µM | – | 5.07 µM | 5.17 µM | > 10 µM | – | –
C[C@@H]1CC[C@H]2[C@@H](C)C(OC(=O)CCc3nc(-c4ccccc4)no3)O[C@@H]3O[C@@]4(C)CC[C@H]1[C@]32OO4 (some centres undefined) | – | – | 4.35 µM | – | 9.1 µM | 7.9 µM | 3.99 µM | – | –
C[C@@H]1CC[C@H]2[C@@H](C)C(OC(=O)c3ccc(CN4CCCCC4)cc3)O[C@@H]3O[C@@]4(C)CC[C@H]1[C@]32OO4 (some centres undefined) | – | – | 2.31 µM | – | > 10 µM | 7.1 µM | > 10 µM | – | –
C[C@@H]1CC[C@H]2[C@@H](C)C(OC(=O)c3cnc4ccccc4c3)O[C@@H]3O[C@@]4(C)CC[C@H]1[C@]32OO4 (some centres undefined) | – | – | 2.62 µM | – | > 10 µM | > 10 µM | 8.4 µM | – | –
C[C@@H]1CC[C@H]2[C@@H](C)C(OC(=O)c3ccc4ncccc4c3)O[C@@H]3O[C@@]4(C)CC[C@H]1[C@]32OO4 (some centres undefined) | – | – | 3.22 µM | – | > 10 µM | 3.02 µM | > 10 µM | – | –
COc1ccc(-n2cc(COC(=O)CCC(=O)OC3O[C@@H]4O[C@@]5(C)CC[C@@H]6[C@H](C)CC[C@@H]([C@H]3C)[C@@]46OO5)nn2)cc1 (some centres undefined) | – | – | 2.78 µM | – | 7.18 µM | 1.59 µM | > 10 µM | – | –
C[C@@H]1CC[C@H]2[C@@H](C)C(OC(=O)c3ccc(Cn4cncn4)cc3)O[C@@H]3O[C@@]4(C)CC[C@H]1[C@]32OO4 (some centres undefined) | – | – | 3.39 µM | – | 7.19 µM | 8.32 µM | > 10 µM | – | –
C[C@@H]1CC[C@H]2[C@@H](C)C(OC(=O)c3cn(-c4ccc([N+](=O)[O-])cc4)nn3)O[C@@H]3O[C@@]4(C)CC[C@H]1[C@]32OO4 (some centres undefined) | – | – | > 10 µM | – | > 10 µM | 4.22 µM | > 10 µM | – | –
COc1ccc(-n2cc(C(=O)OC3O[C@@H]4O[C@@]5(C)CC[C@@H]6[C@H](C)CC[C@@H]([C@H]3C)[C@@]46OO5)nn2)cc1OC (some centres undefined) | – | – | 3.39 µM | – | > 10 µM | 9.61 µM | 8.62 µM | – | –
C[C@@H]1CC[C@H]2[C@@H](C)C(OC(=O)CCc3nc(-c4ccc(Cl)c(Cl)c4)no3)O[C@@H]3O[C@@]4(C)CC[C@H]1[C@]32OO4 (some centres undefined) | – | – | 2.13 µM | – | 9.09 µM | > 10 µM | > 10 µM | – | –
COc1cc(-n2cc(C(=O)OC3O[C@@H]4O[C@@]5(C)CC[C@@H]6[C@H](C)CC[C@@H]([C@H]3C)[C@@]46OO5)nn2)cc(OC)c1OC (some centres undefined) | – | – | 4.32 µM | – | > 10 µM | 1.9 µM | > 10 µM | – | –
COc1ccc(-n2cc(COC(=O)CCC(=O)OC3O[C@@H]4O[C@@]5(C)CC[C@@H]6[C@H](C)CC[C@@H]([C@H]3C)[C@@]46OO5)nn2)cc1OC (some centres undefined) | – | – | 1.79 µM | – | 8.03 µM | 2.89 µM | > 10 µM | – | –
CCCCCCCNC(=O)OC1O[C@@H]2O[C@@]3(C)CC[C@@H]4[C@H](C)CC[C@@H]([C@H]1C)[C@@]24OO3 (some centres undefined) | – | – | 1.19 µM | – | 8 µM | 3.9 µM | > 10 µM | – | –
C[C@@H]1CC[C@H]2[C@@H](C)C(OC(=O)CCC(=O)OCc3cn(-c4ccccc4)nn3)O[C@@H]3O[C@@]4(C)CC[C@H]1[C@]32OO4 (some centres undefined) | – | – | 2.38 µM | – | 6.51 µM | 1.79 µM | > 10 µM | – | –
C[C@@H]1CC[C@H]2[C@@H](C)C(OC(=O)c3cn(-c4ccc(Br)cc4)nn3)O[C@@H]3O[C@@]4(C)CC[C@H]1[C@]32OO4 (some centres undefined) | – | – | 3.87 µM | – | > 10 µM | 7.42 µM | > 10 µM | – | –
CCCCCNC(=O)OC1O[C@@H]2O[C@@]3(C)CC[C@@H]4[C@H](C)CC[C@@H]([C@H]1C)[C@@]24OO3 (some centres undefined) | – | – | 1.82 µM | – | 7.5 µM | 1.42 µM | > 10 µM | – | –
C[C@@H]1CC[C@H]2[C@@H](C)C(OC(=O)c3cn(-c4ccccc4)nn3)O[C@@H]3O[C@@]4(C)CC[C@H]1[C@]32OO4 (some centres undefined) | – | – | 3.41 µM | – | > 10 µM | 7.22 µM | > 10 µM | – | –

SMILES | selectivity ratio [1] | selectivity ratio [2] | IC50 [3] | selectivity ratio [4] | IC50 [5] | IC50 [6] | IC50 [7] | IC50 at 72 h [8] | selectivity ratio [9]
C[C@@H]1CC[C@H]2[C@@H](C)C(OC(=O)CCc3nc(-c4ccc(F)cc4)no3)O[C@@H]3O[C@@]4(C)CC[C@H]1[C@]32OO4 (some centres undefined) | – | – | 2.94 µM | – | 6.55 µM | 7.17 µM | 5.07 µM | – | –
CCCCNC(=O)OC1O[C@@H]2O[C@@]3(C)CC[C@@H]4[C@H](C)CC[C@@H]([C@H]1C)[C@@]24OO3 (some centres undefined) | – | – | 3.51 µM | – | > 10 µM | > 10 µM | > 10 µM | – | –
COc1ccc(-n2cc(C(=O)OC3O[C@@H]4O[C@@]5(C)CC[C@@H]6[C@H](C)CC[C@@H]([C@H]3C)[C@@]46OO5)nn2)cc1 (some centres undefined) | – | – | 3.18 µM | – | > 10 µM | 8.4 µM | 8.7 µM | – | –
C[C@@H]1CC[C@H]2[C@@H](C)C(OC(=O)NC(=O)c3ccccc3)O[C@@H]3O[C@@]4(C)CC[C@H]1[C@]32OO4 (some centres undefined) | – | – | 5.48 µM | – | > 10 µM | > 10 µM | > 10 µM | – | –
C[C@@H]1CC[C@H]2[C@@H](C)C(OC(=O)CCC(=O)OCc3cn(-c4ccc(F)cc4)nn3)O[C@@H]3O[C@@]4(C)CC[C@H]1[C@]32OO4 (some centres undefined) | – | – | 2.21 µM | – | 6.28 µM | 2.33 µM | > 10 µM | – | –
COc1ccc2[nH]cc(CCNC(=O)CCC(=O)OC3O[C@@H]4O[C@@]5(C)CC[C@@H]6[C@H](C)CC[C@@H]([C@H]3C)[C@@]46OO5)c2c1 (some centres undefined) | – | – | 6.64 µM | – | > 10 µM | 7.28 µM | > 10 µM | – | –
C[C@@H]1CC[C@H]2[C@@H](C)C(OC(=O)c3cn(-c4ccc(Cl)cc4)nn3)O[C@@H]3O[C@@]4(C)CC[C@H]1[C@]32OO4 (some centres undefined) | – | – | 3.12 µM | – | > 10 µM | 8.21 µM | 9.24 µM | – | –
C[C@@H]1CC[C@H]2[C@@H](C)C(OC(=O)c3ccc(Cn4cc(Br)cn4)cc3)O[C@@H]3O[C@@]4(C)CC[C@H]1[C@]32OO4 (some centres undefined) | – | – | 1.9 µM | – | 4.9 µM | > 10 µM | 8.53 µM | – | –
C[C@@H]1CC[C@H]2[C@@H](C)C(OC(=O)c3ccc(Cn4ccc5ccc(F)cc54)cc3)O[C@@H]3O[C@@]4(C)CC[C@H]1[C@]32OO4 (some centres undefined) | – | – | 0.47 µM | – | 0.89 µM | 4.36 µM | > 10 µM | – | –
C[C@@H]1CC[C@H]2[C@@H](C)C(OC(=O)CCC(=O)OCc3cn(-c4ccc(Cl)cc4)nn3)O[C@@H]3O[C@@]4(C)CC[C@H]1[C@]32OO4 (some centres undefined) | – | – | 3.03 µM | – | > 10 µM | 1.1 µM | > 10 µM | – | –
C[C@@H]1CC[C@H]2[C@@H](C)C(OC(=O)CCC(=O)NCCc3c[nH]c4ccccc34)O[C@@H]3O[C@@]4(C)CC[C@H]1[C@]32OO4 (some centres undefined) | – | – | 6.74 µM | – | > 10 µM | 1.81 µM | > 10 µM | – | –
COc1ccc(-c2noc(CCC(=O)OC3O[C@@H]4O[C@@]5(C)CC[C@@H]6[C@H](C)CC[C@@H]([C@H]3C)[C@@]46OO5)n2)cc1 (some centres undefined) | – | – | 3.48 µM | – | > 10 µM | > 10 µM | 4.96 µM | – | –
C[C@@H]1CC[C@H]2[C@@H](C)C(OC(=O)c3cc4ccccc4cn3)O[C@@H]3O[C@@]4(C)CC[C@H]1[C@]32OO4 (some centres undefined) | – | – | 5.51 µM | – | > 10 µM | 4.81 µM | > 10 µM | – | –
C[C@@H]1CC[C@H]2[C@@H](C)C(OC(=O)CCc3nc(-c4ccc(Cl)cc4)no3)O[C@@H]3O[C@@]4(C)CC[C@H]1[C@]32OO4 (some centres undefined) | – | – | 3.68 µM | – | 6.79 µM | > 10 µM | 7.05 µM | – | –
C[C@@H]1CC[C@H]2[C@@H](C)C(OC(=O)c3ccc(Cn4cccn4)cc3)O[C@@H]3O[C@@]4(C)CC[C@H]1[C@]32OO4 (some centres undefined) | – | – | 2.31 µM | – | 7.01 µM | > 10 µM | > 10 µM | – | –
C[C@@H]1CC[C@H]2[C@@H](C)C(OC(=O)c3cccc4ncccc34)O[C@@H]3O[C@@]4(C)CC[C@H]1[C@]32OO4 (some centres undefined) | – | – | 3.73 µM | – | > 10 µM | 3.01 µM | > 10 µM | – | –
C[C@@H]1CC[C@H]2[C@@H](C)C(OC(=O)c3cn(-c4ccc(F)cc4)nn3)O[C@@H]3O[C@@]4(C)CC[C@H]1[C@]32OO4 (some centres undefined) | – | – | 3.38 µM | – | > 10 µM | 9.51 µM | > 10 µM | – | –
C[C@@H]1CC[C@H]2[C@@H](C)C(OC(=O)CCC(=O)NCCc3c[nH]c4ccc(Cl)cc34)O[C@@H]3O[C@@]4(C)CC[C@H]1[C@]32OO4 (some centres undefined) | – | – | 4.99 µM | – | 7.25 µM | 1.73 µM | > 10 µM | – | –
